Holding throughout (format): cell-based
The target of assay [1] is T1, human TLR8 (Homo sapiens, UniProt Q9NR97).
T1 construct: host or cells: HEK-Blue cells (HEK293-derived reporter line)
T1 sequence (Q9NR97 27-1041): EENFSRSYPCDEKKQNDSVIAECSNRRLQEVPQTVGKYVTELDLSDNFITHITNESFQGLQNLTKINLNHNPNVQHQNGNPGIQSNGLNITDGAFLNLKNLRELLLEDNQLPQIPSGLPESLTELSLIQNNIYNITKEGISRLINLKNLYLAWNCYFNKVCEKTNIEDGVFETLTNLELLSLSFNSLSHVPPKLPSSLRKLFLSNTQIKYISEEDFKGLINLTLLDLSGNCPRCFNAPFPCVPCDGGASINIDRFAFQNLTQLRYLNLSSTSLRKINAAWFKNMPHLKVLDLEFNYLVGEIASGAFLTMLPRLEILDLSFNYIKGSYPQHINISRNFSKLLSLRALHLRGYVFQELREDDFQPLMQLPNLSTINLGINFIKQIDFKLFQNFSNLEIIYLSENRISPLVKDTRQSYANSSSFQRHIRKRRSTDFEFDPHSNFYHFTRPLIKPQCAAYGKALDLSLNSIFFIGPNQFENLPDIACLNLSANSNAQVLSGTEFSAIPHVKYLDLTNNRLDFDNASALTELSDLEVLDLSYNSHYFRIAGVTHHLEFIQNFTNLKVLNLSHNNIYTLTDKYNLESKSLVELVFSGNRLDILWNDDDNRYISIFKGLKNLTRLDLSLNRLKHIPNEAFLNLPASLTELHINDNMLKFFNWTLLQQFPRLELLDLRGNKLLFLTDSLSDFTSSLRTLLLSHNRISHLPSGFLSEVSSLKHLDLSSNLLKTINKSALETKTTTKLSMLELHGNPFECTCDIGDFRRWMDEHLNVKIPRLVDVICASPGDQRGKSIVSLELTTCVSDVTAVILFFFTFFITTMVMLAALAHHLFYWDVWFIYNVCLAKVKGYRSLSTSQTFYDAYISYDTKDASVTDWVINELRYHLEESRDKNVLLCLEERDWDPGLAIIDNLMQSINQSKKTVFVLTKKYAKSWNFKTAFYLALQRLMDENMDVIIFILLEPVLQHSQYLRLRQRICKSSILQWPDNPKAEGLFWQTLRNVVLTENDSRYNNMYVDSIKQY
Kind of assay: TLR8 inhibition reporter assay (HEK-Blue cells, SEAP reporter, R848 stimulation). Conditions: HEK-Blue cells overexpressing human TLR8, SEAP reporter, R848 15.9 μM. Summed up:
(§1)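 After 22 h at 37 °C, SEAP secretion was measured from human TLR7-, TLR8- or TLR9-expressing HEK-Blue reporter cells given compound (0.05 nM–50 μM) 30 min before agonist: 7.5 μM gardiquimod, 15.9 μM R848 or 5 nM ODN2006 respectively. Percent inhibition referenced to agonist-plus-DMSO and known-inhibitor wells.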

In assay [2] the target is T2, human TLR9 (Homo sapiens, UniProt Q9NR96).
T2 construct: host or cells: HEK-Blue cells (HEK293-derived reporter line)
T2 sequence (Q9NR96 26-1032): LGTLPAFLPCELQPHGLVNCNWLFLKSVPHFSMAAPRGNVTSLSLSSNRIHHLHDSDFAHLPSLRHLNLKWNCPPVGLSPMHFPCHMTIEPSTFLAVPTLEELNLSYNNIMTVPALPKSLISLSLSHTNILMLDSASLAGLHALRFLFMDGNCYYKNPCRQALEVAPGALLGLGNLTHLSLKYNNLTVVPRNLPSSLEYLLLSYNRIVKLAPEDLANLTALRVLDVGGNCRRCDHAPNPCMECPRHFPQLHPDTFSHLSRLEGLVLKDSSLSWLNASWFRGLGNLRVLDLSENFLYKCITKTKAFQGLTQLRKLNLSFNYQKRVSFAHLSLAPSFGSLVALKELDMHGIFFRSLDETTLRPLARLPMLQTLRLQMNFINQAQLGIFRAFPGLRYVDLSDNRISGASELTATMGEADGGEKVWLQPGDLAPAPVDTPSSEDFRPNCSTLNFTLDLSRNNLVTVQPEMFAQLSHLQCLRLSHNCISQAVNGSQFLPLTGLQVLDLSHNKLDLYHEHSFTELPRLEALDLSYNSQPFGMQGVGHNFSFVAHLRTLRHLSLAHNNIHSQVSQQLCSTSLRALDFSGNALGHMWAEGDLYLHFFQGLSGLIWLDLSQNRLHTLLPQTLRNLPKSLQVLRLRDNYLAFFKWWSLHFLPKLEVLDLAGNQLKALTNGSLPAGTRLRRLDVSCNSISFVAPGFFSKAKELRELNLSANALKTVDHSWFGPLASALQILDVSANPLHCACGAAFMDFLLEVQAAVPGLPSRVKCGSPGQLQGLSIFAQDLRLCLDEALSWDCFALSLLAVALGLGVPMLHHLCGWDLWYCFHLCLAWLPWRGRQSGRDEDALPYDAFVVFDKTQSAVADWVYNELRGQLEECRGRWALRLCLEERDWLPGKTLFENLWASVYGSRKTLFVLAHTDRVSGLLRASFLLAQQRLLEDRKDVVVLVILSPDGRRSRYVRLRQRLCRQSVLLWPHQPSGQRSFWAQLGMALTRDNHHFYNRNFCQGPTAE
Kind of assay: TLR9 inhibition reporter assay (HEK-Blue cells, SEAP reporter, ODN2006 stimulation). The note with it: HEK-Blue cells overexpressing human TLR9, SEAP reporter, ODN2006 5 nM. Summed up: as §1

Assay [3] deals with T3, human TLR7 (Homo sapiens, UniProt Q9NYK1).
T3 construct: host or cells: HEK-Blue cells (HEK293-derived reporter line)
T3 sequence (Q9NYK1 27-1049): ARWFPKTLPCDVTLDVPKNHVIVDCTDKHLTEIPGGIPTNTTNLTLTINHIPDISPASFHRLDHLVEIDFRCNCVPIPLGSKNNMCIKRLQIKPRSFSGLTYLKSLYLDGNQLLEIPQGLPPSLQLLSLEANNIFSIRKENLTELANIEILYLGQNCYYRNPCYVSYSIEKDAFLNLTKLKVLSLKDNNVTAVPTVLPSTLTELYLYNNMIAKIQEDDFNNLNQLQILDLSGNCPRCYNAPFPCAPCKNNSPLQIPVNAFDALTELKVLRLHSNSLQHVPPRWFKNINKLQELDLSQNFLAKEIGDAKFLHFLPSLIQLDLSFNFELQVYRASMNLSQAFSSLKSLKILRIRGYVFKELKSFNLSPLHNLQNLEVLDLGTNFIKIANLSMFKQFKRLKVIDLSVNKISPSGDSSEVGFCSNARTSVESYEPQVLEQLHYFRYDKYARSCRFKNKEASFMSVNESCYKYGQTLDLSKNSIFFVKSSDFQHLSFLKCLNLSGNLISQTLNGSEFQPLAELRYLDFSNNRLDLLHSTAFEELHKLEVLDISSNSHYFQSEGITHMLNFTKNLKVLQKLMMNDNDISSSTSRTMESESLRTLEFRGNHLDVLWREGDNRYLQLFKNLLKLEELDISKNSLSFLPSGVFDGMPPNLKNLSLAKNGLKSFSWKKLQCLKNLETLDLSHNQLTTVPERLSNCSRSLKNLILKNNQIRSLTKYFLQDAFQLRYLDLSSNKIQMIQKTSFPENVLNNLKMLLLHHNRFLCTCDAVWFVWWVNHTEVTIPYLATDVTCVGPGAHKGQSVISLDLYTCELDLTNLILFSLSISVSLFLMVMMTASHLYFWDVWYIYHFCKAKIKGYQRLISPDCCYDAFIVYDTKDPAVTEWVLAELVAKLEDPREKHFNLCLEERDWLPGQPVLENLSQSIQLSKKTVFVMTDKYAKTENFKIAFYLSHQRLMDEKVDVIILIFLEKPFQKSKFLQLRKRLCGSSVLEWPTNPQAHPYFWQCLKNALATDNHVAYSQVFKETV
Kind of assay: TLR7 inhibition reporter assay (HEK-Blue cells, SEAP reporter, gardiquimod stimulation). Conditions: HEK-Blue cells overexpressing human TLR7, SEAP reporter, gardiquimod 7.5 μM. The procedure, abridged: as §1

`CCc1c(-c2cnc3[nH]c(=O)[nH]c3c2)[nH]c2ccc(C3CCNCC3)cc12` [Example 180, 6-(3-ethyl-5-(piperidin-4-yl)-1H-indol-2-yl)-1,3-dihydro-2H-imidazo[4,5-b]pyridin-2-one]: the IC50 in assay [1], in assay [2] and in assay [3] was 1 to 50 µM in each case.
Take `Cc1ccnc2[nH]cc(-c3[nH]c4ccc(C5CCNCC5)cc4c3C(C)C)c12` [Example 36, 3-(3-isopropyl-5-(piperidin-4-yl)-1H-indol-2-yl)-4-methyl-1H-pyrrolo[2,3-b]pyridine]: the IC50 in assay [1] is below 0.1 µM; in assay [2], 0.1 to 1 µM; in assay [3] it was below 0.1 µM.
With `CNCCN1CCC(c2ccc3[nH]c(-c4ccc5c(c4)CCO5)c(C)c3c2)CC1` [Example 669, 2-(4-(2-(2,3-dihydrobenzofuran-5-yl)-3-methyl-1H-indol-5-yl)piperidin-1-yl)-N-methylethan-1-amine], the IC50 in assay [1] lay within 0.1 to 1 µM; in assay [2] it was 1 to 50 µM; in assay [3], 1 to 50 µM.
For the compound `Cc1nn2ccc(-c3[nH]c4ccc(C5CCN(CC(=O)N(C)C)CC5)cc4c3C(C)C)nc2c1F` [Example 400, 2-(4-(2-(3-fluoro-2-methylpyrazolo[1,5-a]pyrimidin-5-yl)-3-isopropyl-1H-indol-5-yl)piperidin-1-yl)-N,N-dimethylacetamide], the IC50 in assay [1] was 1 to 50 µM; in assay [2], 1 to 50 µM; in assay [3] it was above 3.13 µM.
Regarding `Cc1c(-c2ncnc3[nH]ncc23)[nH]c2ccc(C3CCN(C4CCN(C(C)C)CC4)CC3)cc12` [Example 816, 4-(5-(1′-isopropyl-[1,4′-bipiperidin]-4-yl)-3-methyl-1H-indol-2-yl)-1H-pyrazolo[3,4-d]pyrimidine], the 50% inhibitory concentration (IC50) in assay [1] is below 0.1 µM; in assay [2] it was below 0.1 µM; in assay [3], 0.1 to 1 µM.
For the compound `CC(C)c1c(-c2ccn3cnnc3c2)[nH]c2ccc(C3CCN(C4CCOCC4)CC3)cc12` [Example 697, 7-(3-isopropyl-5-(1-(tetrahydro-2H-pyran-4-yl)piperidin-4-yl)-1H-indol-2-yl)-[1,2,4]triazolo[4,3-a]pyridine], the IC50 in assay [1], in assay [2] and in assay [3] was 0.1 to 1 µM in each case.
In the case of `Cc1cc(-c2[nH]c3ccc(C4CCNCC4)cc3c2C(C)C)cc2ncnn12` [Example 154, 7-(3-isopropyl-5-(piperidin-4-yl)-1H-indol-2-yl)-5-methyl-[1,2,4]triazolo[1,5-a]pyridine], the values for the IC50 in assay [1], in assay [2] and in assay [3] were below 0.1 µM, 1 to 50 µM and below 0.1 µM, respectively.
Regarding `CC(CN(C)C)CN1CCC(c2ccc3[nH]c(-c4ccnc5[nH]ncc45)c(C(C)C)c3c2)CC1` (stereo not drawn) [Example 846, 3-(4-(3-isopropyl-2-(1H-pyrazolo[3,4-b]pyridin-4-yl)-1H-indol-5-yl)piperidin-1-yl)-N,N,2-trimethylpropan-1-amine], the IC50 in assay [1] was below 0.1 µM; in assay [2], 0.1 to 1 µM; in assay [3], below 0.1 µM.
Consider `CC(C)c1c(-c2cc(CO)c3nnnn3c2)[nH]c2ccc(C3CCN(CC4(C)COC4)CC3)cc12` [Example 781, (6-(3-isopropyl-5-(1-((3-methyloxetan-3-yl)methyl)piperidin-4-yl)-1H-indol-2-yl)tetrazolo[1,5-a]pyridin-8-yl)methanol], for which the IC50 in assay [1] was below 0.1 µM; in assay [2], 1 to 50 µM; in assay [3] it was below 0.1 µM.
In the case of `Cc1ccc(-c2[nH]c3ccc(C4CCNCC4)cc3c2C(C)C)c2ncnn12` [Example 152, 8-(3-isopropyl-5-(piperidin-4-yl)-1H-indol-2-yl)-5-methyl-[1,2,4]triazolo[1,5-a]pyridine], the IC50 in assay [1] was below 0.1 µM; in assay [2] it was 1 to 50 µM; in assay [3], below 0.1 µM.
For the compound `CC(C)c1c(-c2cnc3cn[nH]c3c2)[nH]c2ccc(C3CCN(C(=O)CN(C)C)CC3)cc12` [Example 526, 2-(dimethylamino)-1-(4-(3-isopropyl-2-(1H-pyrazolo[4,3-b]pyridin-6-yl)-1H-indol-5-yl)piperidin-1-yl)ethan-1-one], the IC50 was below 0.1 µM in assay [1], 1 to 50 µM in assay [2] and below 0.1 µM in assay [3].
Consider `Cc1cn2cc(-c3[nH]c4ccc(C5CCN(C(=O)CN(C)C)CC5)cc4c3CC(F)F)ccc2n1` [Example 551, 1-(4-(3-(2,2-difluoroethyl)-2-(2-methylimidazo[1,2-a]pyridin-6-yl)-1H-indol-5-yl)piperidin-1-yl)-2-(dimethylamino)ethan-1-one], for which the IC50 in assay [1] is above 3.13 µM; in assay [2] it was 0.1 to 1 µM; in assay [3], below 0.1 µM.
`CCc1c(-c2c(C)cnc3[nH]ccc23)[nH]c2ccc(C3CCNCC3)cc12` [Example 246, 4-(3-ethyl-5-(piperidin-4-yl)-1H-indol-2-yl)-5-methyl-1H-pyrrolo[2,3-b]pyridine]: the half-maximal inhibitory concentration (IC50) in assay [1] is below 0.1 µM; in assay [2], 0.1 to 1 µM; in assay [3], below 0.1 µM.
